Bounds are passed on as bounds.

From patent US10710992B2, “Substituted pyridinones as bromodomain inhibitors” (Zenith Epigenetics Ltd., priority 2014, dated 2020) come the findings set out here.

One test relates to hIL-6 mRNA. Nature of the test: Inhibition of hIL-6 mRNA transcription in LPS-stimulated U937 cells. It is filed as cell-based. As to conditions: Homo sapiens, U-937; PMA-differentiated U937 cells, 1 h pretreatment, LPS 1 ug/mL, 3 h; read-out: IL-6 activity. How it is done:
Human leukemic monocyte lymphoma U937 cells (CRL-1593.2) were plated at a density of 3.2×10^4 cells per well in a 96-well plate in 100 μL RPMI-1640 containing 10% FBS and penicillin/streptomycin, and differentiated into macrophages for 3 days in 60 ng/mL PMA ([…]) at 37° C. in 5% CO2 prior to the addition of compound. The cells were pretreated for 1 h with increasing concentrations of test compound in 0.1% DMSO prior to stimulation with 1 ug/mL lipopolysaccharide from Escherichia coli. Triplicate wells were used for each concentration. The cells were incubated at 37° C., 5% CO2 for 3 h before the cells were harvested. At time of harvest, media was removed and cells were rinsed in 200 μL PBS. Cells were harvested using the mRNA Catcher PLUS kit according to manufacturer's instructions. The eluted mRNA was then used in a one-step quantitative real-time PCR reaction using components of the RNA UltraSense™ One-Step Kit (Life Technologies) together with Applied Biosystems TaqMan® primer-probes for hIL-6 and Cyclophilin. Real-time PCR plates were run on a ViiA™ 7 real time PCR machine (Applied Biosystems), data was analyzed, normalizing the Ct values for hIL-6 to an internal control, prior to determining the fold expression of each sample, relative to the control.

A further test deals with Human AML MV-4-11 cells. Nature of the test: Inhibition of cell proliferation in cancer cell lines (CellTiter Aqueous One). It is filed as cell-based. The note with it: MV4-11 cells, 72 h; for IC50: Homo sapiens. Here is the method: MV4-11 cells (CRL-9591) were plated at a density of 5×10^4 cells per well in 96 well flat bottom plates and treated with increasing concentrations of test compound or DMSO (0.1%) in IMDM media containing 10% FBS and penicillin/streptomycin. Triplicate wells were used for each concentration and a well containing only media was used as a control. Plates were incubated at 37° C., 5% CO2 for 72 h before adding 20 μL of the CellTiter Aqueous One Solution (Promega) to each well and incubated at 37° C., 5% CO2 for an additional 3-4 h. The absorbance was read at 490 nm in a spectrophotometer and the percentage of cell titer relative to DMSO-treated cells was calculated after correcting for background by subtracting the blank well's signal. IC50 values were calculated using the GraphPad Prism software.

The subject of test [1] is c-myc in Human AML MV4-11 cells. The experiment in a line: Inhibition of cMYC expression in cancer cell lines (mRNA, real-time PCR). It is filed as cell-based. The note with it: 3 h, cMYC mRNA normalized to Cyclophilin; for IC50: Homo sapiens. How it is done: MV4-11 cells (CRL-9591) were plated at a density of 2.5×10^4 cells per well in 96 well U-bottom plates and treated with increasing concentrations of test compound or DMSO (0.1%) in IMDM media containing 10% FBS and penicillin/streptomycin, and incubated for 3 h at 37° C. Triplicate wells were used for each concentration. Cells were pelleted by centrifugation and harvested using the mRNA Catcher PLUS kit according to manufacturer's instructions. The eluted mRNA isolated was then used in a one-step quantitative real-time PCR reaction, using components of the RNA UltraSense™ One-Step Kit (Life Technologies) together with Applied Biosystems TaqMan® primer-probes for cMYC and Cyclophilin. Real-time PCR plates were run on a ViiA™ 7 real time PCR machine (Applied Biosystems), data was analyzed, normalizing the Ct values for cMYC to an internal control, prior to determining the fold expression of each sample, relative to the control.

Test [2] has as its target T1, Brd4 bromodomain 1 (BRD4(1)) (Homo sapiens, UniProt O60885).
T1 construct: made in house; host or cells: E. coli BL21(DE3)
The experiment in a line: Inhibition of tetra-acetylated histone H4 binding to BET bromodomain (HTRF/FRET). As to conditions: His-tagged bromodomain 200 nM, tetra-acetylated histone H4 peptide, 2 h room temperature. How it is done:
Proteins were cloned and overexpressed with a N-terminal 6× His tag, then purified by nickel affinity followed by size exclusion chromatography. Briefly, E. coli BL21(DE3) cells were transformed with a recombinant expression vector encoding N-terminally Nickel affinity tagged bromodomains from Brd2, Brd3, Brd4. Cell cultures were incubated at 37° C. with shaking to the appropriate density and induced overnight with IPTG. The supernatant of lysed cells was loaded onto Ni-IDA column for purification. Eluted protein was pooled, concentrated and further purified by size exclusion chromatography. Fractions representing monomeric protein were pooled, concentrated, aliquoted, and frozen at −80° C. for use in subsequent experiments.
Binding of tetra-acetylated histone H4 and BET bromodomains was confirmed by a Homogenous Time Resolved Fluorescence Resonance Energy Transfer (HTRF®) method. N-terminally His-tagged bromodomains (200 nM) and biotinylated tetra-acetylated historic H4 peptide (25-50 nM, Millipore) were incubated in the presence of Europium Cryptate-labeled streptavidin (Cisbio Cat. #610SAKLB) and XL665-labeled monoclonal anti-His antibody (Cisbio Cat. #61HISXLB) in a white 96 well microtiter plate (Greiner). For inhibition assays, serially diluted test compound was added to these reactions in a 0.2% final concentration of DMSO. Duplicate wells were used for each concentration tested. Final buffer concentrations were 30 mM HEPES pH 7.4, 30 mM NaCl, 0.3 mM CHAPS, 20 mM phosphate pH 7.0, 320 mM KF, 0.08% BSA. After a 2 h incubation at room temperature, fluorescence was measured at 665 and 620 nm with a SynergyH4 plate reader (Biotek). The binding inhibitory activity was shown by a decrease in 665 nm relative to […] fluorescence. IC50 values were determined from a dose response curve.
(In general: Time-resolved FRET reads energy transfer from a long-lived donor to a nearby acceptor.)

For the compound `Cc1noc(C)c1-c1c[nH]c(=O)c(NCc2ccncc2)c1` [Example 11, 5-(3,5-dimethylisoxazol-4-yl)-3-((pyridin-4-ylmethyl)amino)pyridin-2(1H)-one], the IC50 in the test with hIL-6 mRNA fell in the range of 300 to 3000 nM; in the test with Human AML MV-4-11 cells, 3000 to 30000 nM; in test [1], 3000 to 30000 nM; in test [2], 300 to 3000 nM.
With `Cc1ncccc1Oc1cc(-c2c(C)noc2C)cnc1O` [Example 43, 5-(3,5-dimethylisoxazol-4-yl)-3-((2-methylpyridin-3-yl)oxy)pyridin-2-ol], the IC50 in the test with hIL-6 mRNA lay within 3000 to 30000 nM; in test [2] it was 300 to 3000 nM. For the same compound, in the test on Human AML MV-4-11 cells, the “Cell Proliferation activity” value is reported as “Not Active”. In addition, the c-myc activity result in test [1] is “Not Active”.
As to `Cc1noc(C)c1-c1c[nH]c(=O)c(NCc2ccc3ccccc3n2)c1` [Example 35, 5-(3,5-dimethylisoxazol-4-yl)-3-((quinolin-2-ylmethyl)amino)pyridin-2(1H)-one], the IC50 is 300 to 3000 nM in the test on hIL-6 mRNA, 300 to 3000 nM in the test on Human AML MV-4-11 cells, 3000 to 30000 nM in test [1] and not above 300 nM in test [2].
Consider `Cc1noc(C)c1-c1c[nH]c(=O)c(NCc2ccc(Cl)cc2)c1` [Example 8, 3-((4-chlorobenzyl)amino)-5-(3,5-dimethylisoxazol-4-yl)pyridin-2(1H)-one], for which the IC50 with hIL-6 mRNA is 300 to 3000 nM; with Human AML MV-4-11 cells, 3000 to 30000 nM; in test [1], 3000 to 30000 nM; in test [2] it was not above 300 nM.
With `Cc1noc(C)c1-c1c[nH]c(=O)c(NCc2cccnc2)c1` [Example 23, 5-(3,5-dimethylisoxazol-4-yl)-3-((pyridin-3-ylmethyl)amino)pyridin-2(1H)-one], the IC50 in the test on hIL-6 mRNA was 300 to 3000 nM; in test [1], 300 to 3000 nM; in test [2] it was not above 300 nM.
`Cc1noc(C)c1-c1c[nH]c(=O)c(OCc2ccccc2)c1` [Example 14, 3-(benzyloxy)-5-(3,5-dimethylisoxazol-4-yl)pyridin-2(1H)-one]: the IC50 was in the range of 300 to 3000 nM with hIL-6 mRNA, 3000 to 30000 nM with Human AML MV-4-11 cells, 3000 to 30000 nM in test [1] and 300 to 3000 nM in test [2].
For `Cc1noc(C)c1-c1c[nH]c(=O)c(NCc2ccc(Cl)s2)c1` [Example 12, 3-(((5-chlorothiophen-2-yl)methyl)amino)-5-(3,5-dimethylisoxazol-4-yl)pyridin-2(1H)-one], the IC50 was 300 to 3000 nM in the test on hIL-6 mRNA, 300 to 3000 nM with Human AML MV-4-11 cells and not above 300 nM in test [2].
For `Cc1noc(C)c1-c1c[nH]c(=O)c(NCc2ncccc2Cl)c1` [Example 37, 3-(((3-chloropyridin-2-yl)methyl)amino)-5-(3,5-dimethylisoxazol-4-yl)pyridin-2(1H)-one], the IC50 (with hIL-6 mRNA; in test [2]) was 300 to 3000 nM in each case. The “Cell Proliferation activity” value with Human AML MV-4-11 cells is on record as “Not Active”. In test [1], the c-myc activity result is recorded as “Not Active”.
In the case of `Cc1noc(C)c1-c1c[nH]c(=O)c(NCc2nc3ccccc3s2)c1` [Example 40, 3-((benzo[d]thiazol-2-ylmethyl)amino)-5-(3,5-dimethylisoxazol-4-yl)pyridin-2(1H)-one], the IC50 in the test with hIL-6 mRNA lay in the range of 300 to 3000 nM; with Human AML MV-4-11 cells, 3000 to 30000 nM; in test [1] it was 300 to 3000 nM; in test [2] it was 300 to 3000 nM.
`Cc1noc(C)c1Nc1cc(-c2c(C)noc2C)c[nH]c1=O` [Example 34, 5-(3,5-dimethylisoxazol-4-yl)-3-((3,5-dimethylisoxazol-4-yl)amino)pyridin-2(1H)-one]: the IC50 is 300 to 3000 nM with hIL-6 mRNA, 300 to 3000 nM in the test on Human AML MV-4-11 cells, 300 to 3000 nM in test [1] and not above 300 nM in test [2].
Consider `Cc1noc(C)c1-c1c[nH]c(=O)c(NCc2ccc(C#N)cc2)c1` [Example 9, 4-(((5-(3,5-dimethylisoxazol-4-yl)-2-oxo-1,2-dihydropyridin-3-yl)amino)methyl)benzonitrile], for which the IC50 with hIL-6 mRNA is 300 to 3000 nM; in the test with Human AML MV-4-11 cells, 3000 to 30000 nM; in test [1] it was 300 to 3000 nM; in test [2], not above 300 nM.
For `Cc1noc(C)c1-c1c[nH]c(=O)c(NCc2ccc(C(F)(F)F)cc2)c1` [Example 10, 5-(3,5-dimethylisoxazol-4-yl)-3-((4-(trifluoromethyl)benzyl)amino)pyridin-2(1H)-one], the IC50 is 300 to 3000 nM in the test on hIL-6 mRNA, 3000 to 30000 nM with Human AML MV-4-11 cells, 3000 to 30000 nM in test [1] and 300 to 3000 nM in test [2].
On to `Cc1noc(C)c1-c1c[nH]c(=O)c(NCc2ccsc2)c1` [Example 13, 5-(3,5-dimethylisoxazol-4-yl)-3-((thiophen-3-ylmethyl)amino)pyridin-2(1H)-one], for which the IC50 was 300 to 3000 nM in the test with hIL-6 mRNA, 300 to 3000 nM in the test on Human AML MV-4-11 cells, 300 to 3000 nM in test [1] and not above 300 nM in test [2].
On to `Cc1noc(C)c1-c1c[nH]c(=O)c(Nc2cccc(F)c2)c1` [Example 3, 5-(3,5-dimethylisoxazol-4-yl)-3-((3-fluorophenyl)amino)pyridin-2(1H)-one], for which the IC50 with hIL-6 mRNA fell in the range of 300 to 3000 nM; with Human AML MV-4-11 cells, 3000 to 30000 nM; in test [1], 300 to 3000 nM; in test [2] it was 300 to 3000 nM.
As to `Cc1cccc(Nc2cc(-c3c(C)noc3C)c[nH]c2=O)c1` [Example 6, 5-(3,5-dimethylisoxazol-4-yl)-3-(m-tolylamino)pyridin-2(1H)-one], the IC50 was 300 to 3000 nM with hIL-6 mRNA, 300 to 3000 nM in the test with Human AML MV-4-11 cells and not above 300 nM in test [2].
For the compound `Cc1noc(C)c1-c1c[nH]c(=O)c(N[C@@H](C)c2ccccn2)c1` (single isomer, unassigned) [Example 41], the IC50 in the test with hIL-6 mRNA is 300 to 3000 nM; with Human AML MV-4-11 cells, 3000 to 30000 nM; in test [1], 3000 to 30000 nM; in test [2] it was not above 300 nM.
Take `Cc1noc(C)c1-c1c[nH]c(=O)c(NCc2cccc3ncccc23)c1` [Example 39, 5-(3,5-dimethylisoxazol-4-yl)-3-((quinolin-5-ylmethyl)amino)pyridin-2(1H)-one]: the IC50 is not above 300 nM in the test with hIL-6 mRNA, 300 to 3000 nM with Human AML MV-4-11 cells, 300 to 3000 nM in test [1] and not above 300 nM in test [2].
For `Cc1noc(C)c1-c1c[nH]c(=O)c(NCc2ccc3ccccc3c2)c1` [Example 33, 5-(3,5-dimethylisoxazol-4-yl)-3-((naphthalen-2-ylmethyl)amino)pyridin-2(1H)-one], the IC50 in the test on hIL-6 mRNA was in the range of 300 to 3000 nM; in the test on Human AML MV-4-11 cells, 3000 to 30000 nM; in test [1], 3000 to 30000 nM; in test [2] it was 300 to 3000 nM.
